Assay results: patent publication US20130253179A1, “Functionalization Processes and Reactants Used in Such Processes Using an Isatoic Anhydride or a Derivative Thereof, Biological Molecules Thus Treated and Kits” (priority 2010, published 2013)

Columns and labels:
ODN with 53 bases = test: RNA vs DNA chemoselectivity: functionalisation of an ODN with 53 bases; format: biochemical; details: compound 30 mM, DMSO/TEAAc buffer 25/75 (250 mM pH 7), 1 h at 65° C.
Protocol: After precipitation with acetone and hydrolysis with nuclease P1 and alkaline phosphatase, the hydrolysed fragments are analysed by LC-MS, as described in example 3. An example of the chromatograms monitoring the reaction of ODN or ORN with compound 13 is shown in FIG. 9, in which graphs A, B and C respectively represent ORN, ORN functionalised with compound 13 and precipitated, and ORN functionalised with 13, precipitated and hydrolysed. Graphs D, E and F represent the same thing, but with ODN.

[1] = test system: model oligoribonucleotide (ORN) with 27 bases; test: Functionalisation of a model ORN with 27 bases: functionalisation rate and regiospecificity by HPLC/LC-MS after nuclease P1/alkaline phosphatase hydrolysis; format: biochemical; details: for Fr (corrected functionalisation rate): ORN 8 nmol; for Fr (corrected functionalisation rate) / External/internal regiospecificity (uncorrected ratio of areas acylated mononucleosides / acylated dinucleotides): compound 30 mM, 1 h at 65° C., 250 mM TEAAc pH 7, 25% DMSO
From the text: For this purpose, a fixed quantity of ORN is reacted with an isatoic anhydride derivative conjugated to a molecule of interest (Cy3 IA Me (13)), under various temperature conditions, duration conditions, reaction medium conditions, etc. HPLC monitoring of the reaction at 260 nm makes it possible to detect the disappearance of the peak corresponding to the initial ORN and the appearance of peaks corresponding to acylated ORN. These products have a greater retention time and have an absorption spectrum corresponding to both that of ORN and that of the fluorescent label.
However, for greater precision on the functionalisation site and to precisely evaluate the functionalisation rate (Fr), the ORN population (labelled and unlabelled) is separated from the excess label by precipitation with acetone/lithium perchlorate or by gel permeation (NAP 5™, GE Health Care. Then the ORNs thus obtained are submitted to hydrolysis with the nuclease P1 (Aldrich, Saint Louis, USA) and with the alkaline phosphatase (Aldrich, Saint Louis, USA), in order to hydrolyse the phosphate diester bonds of ORN.
The ORN functionalisation rate (Fr) is evaluated by measuring: • the area corresponding to the terminal mononucleoside adducts (functionalised at 2′ and at 3′) and the area corresponding to the acylated dinucleosides (functionalised internally on 2′OH) • compared to the area of the peaks corresponding to the four ribonucleosides.
The internal/external regiospecificity of the acylation is evaluated by measuring the relative proportion of the areas corresponding to the: • end mono-nucleotides acylated at 2′ and at 3′ • and di-nucleotides acylated internally on 2′OH • which are easily detectable by HPLC.
The mixture is incubated for 60 minutes at 65° C. in an oven on a rack which is temperature-balanced in advance. An HPLC injection (conditions 3) makes it possible to monitor a formation of a certain quantity of acylated ORN as described in FIG. 6. To eliminate the salts and the excess label, the mixture is then purified on Sephadex NAP 5 gel (GE Health Care, Uppsala, Sweden)) and/or triple precipitation in 1.2 mL of a 180 mM Acetone/LiClO4 75/25 mixture. To finish, the pellet is dried with acetone and is evaporated with the centrifugal evaporator (RCT 60, Jouan, St Herblain, France). The residue is then taken up in 33 μL of a H2O/DMSO 85/15 solution and an HPLC injection (conditions 3) is performed in order to verify the proper elimination of the label. There is added to the mixture 2 μL of nuclease P1 (ref.: N8630 Sigma-Aldrich, St Louis, USA) in 1 U/μl solution in its buffer: 20 mM sodium acetate pH 5.5; 1 mM ZnCl2; 50 mM NaCl and 1 μL of 7 u/μl alkaline phosphatase in water (Ref. P7923-2KU Sigma-Aldrich, St Louis, USA). The medium is left at ambient temperature for 4 to 6 hours. It is then injected into HPLC (conditions 3) in order to verify the total hydrolysis of the ORN and in order to analyse the nature of the fragments obtained in accordance with what was described above and as described in FIG. 6.
The functionalisation rate is evaluated with UV at 260 nm by integration of the clusters corresponding to the acylated dinucleotides and to the acylated nucleosides) relative to the clusters corresponding to the four ribonucleosides. The ratio of the population of acylated dinucleotides to the population of acylated nucleosides is evaluated in the same way in order to evaluate the percentage of functionalisation on the 3′ terminal end.
The functionalisation rate values, presented within the framework of this invention, take into account the correction factor which must be applied according to the molar extinction coefficient at 260 nm of each of the nucleosides and according to whether they are nucleosides or dinucleotides. […]

MAQC RNA = test: DoL of MAQC total RNA after zinc acetate cleaving and alkaline phosphatase treatment; format: biochemical, human; details: compound 15 mM
Protocol: The panel of RNA strands is MAQC RNA (Stratagene Reference: #74000). This total RNA (ribosomal and messenger) is directly extracted from ten lines of human cells of different origin: brain, breast, B Lymphocyte, uterine cervix, liver, liposarcoma, macrophage, skin, testicle, Lymphocyte T.
The functionalisation protocol is the same as that described in example 9, i.e.: • 12 μg of MAQC0 RNA is incubated, or not, with a Zinc acetate solution. • The mixture is precipitated with isopropanol. • 7 units of alkaline phosphatase (P7923-2KU Sigma-Aldrich) are added to the mixture, […] There is then added to the mixture the molecule Cy3-IA Me 13 at 15 mM in a NaHCO3 buffer (100 mM/DMSO 75/25 pH 8-8.5), with a total volume of 80 μl. The mixture is incubated for 1 h at 65° C. • The mixture is precipitated once again with isopropanol, then twice with acetone, before the DoL is measured as described in example 9.

[2] = FIG. 6 graph D, share of functionalised adducts

With `Cn1c(=O)oc(=O)c2cc(NC(=O)CCSSCCNC(=O)CCOCCOCCOCCOCCNC(=O)CCCCC3SCC4NC(=O)NC43)ccc21` (stereo not drawn) [5Biot PEG4 SS IA Me 24] the “corrected functionalisation rate of the ODN” value (ODN with 53 bases) was 0.1%, the “Fr (corrected functionalisation rate)” value [1] was 2.8% and the “External/internal regiospecificity (uncorrected ratio of areas acylated mononucleosides / acylated dinucleotides)” value [1] was 62/38.

`CCN1/C(=C\C=C\C2=[N+](CCCCCC(=O)Nc3ccc4c(c3)c(=O)oc(=O)n4C)c3ccc(S(=O)(=O)[O-])cc3C2(C)C)C(C)(C)c2cc(S(=O)(=O)[O-])ccc21.[K+]` [Cy3 IA Me 13, 1-methyl 5-Cy3-isatoic anhydride] was tested, and the “corrected functionalisation rate of the ODN” value (ODN with 53 bases) was 0.1%, the DoL (MAQC RNA; 10 mM Zn(OAc)2 0 mins, AP hydrolysis 0) was 1.7% and the DoL (MAQC RNA; 10 mM Zn(OAc)2 0 mins, AP hydrolysis 4 h) was 1.5%. For the same compound, the DoL (MAQC RNA; 10 mM Zn(OAc)2 15 mins, AP hydrolysis 0) was 1.7%, the DoL (MAQC RNA; 10 mM Zn(OAc)2 15 mins, AP hydrolysis 4 h) was 2.5% and the “acylated dinucleotides (peak 1)” value [1, 2] was 42%. The “nucleosides acylated at 2′ or at 3′ (peaks 2 and 3)” value [1, 2] was 58%, the “Fr (corrected functionalisation rate)” value [1] was 4.5% and the “Fr (corrected functionalisation rate)” value ([1]; listed as 13) was 4.5%. For the same compound, the “Fr (corrected functionalisation rate)” value ([1]; listed as Cy3 IA ME (13)) was 4.2%, the corrected functionalisation rate ([1]; compound 15 mM, protocol of example 3) was 2.6% and the “External/internal regiospecificity (uncorrected ratio of areas acylated mononucleosides / acylated dinucleotides)” value [1] was 58/42.
